Measured values published in patent US20240174680A1, “CDK2 INHIBITORS AND METHODS OF USING THE SAME” (Cedilla Therapeutics, Inc., priority 2021, published 2024).

What follows are compounds tested against CDK2/Cyclin E1 (Homo sapiens, UniProt P24941) (assay: CDK2/Cyclin E1 Caliper LabChip EZ Reader mobility shift assay). Details: read-out: Caliper Assay (CDK2/CCNE1): IC50.
Format: biochemical
Parameters: purchased Eurofins 14-475
How it was run: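 Substrate-to-product conversion of fluorescent peptide (1.5 μM final) read by capillary electrophoresis after 100 min reaction, EDTA-quenched. Enzyme (2.5 nM final) and ATP (100 μM final) were preincubated 30 min with inhibitor dilutions first. % activity vs concentration fitted four-parameter for IC50.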

| SMILES | IC50 [nM] |
| --- | --- |
| COc1cccc(CNC(=O)[C@H]2CN(C(=O)c3cnn(Cc4ccccc4)c3)CC23CN(C(=O)[C@H]2CC2(C)C)C3)n1 [I-126B] | > 10000 |
| CNC(=O)[C@@H](NC(=O)[C@@H]1CN(C(=O)c2cnn(CC3CCOCC3)c2)CC12CN(C(=O)[C@H]1CC1(C)C)C2)[C@@H](C)OCC1CCCCC1 [I-121A] | 10 to 100 |
| CNC(=O)[C@@H](NC(=O)[C@@H]1CN(C(=O)c2ccncc2)CC12CN(C(=O)[C@H]1CC1(C)C)C2)[C@@H](C)OCc1ccccc1 [I-46A] | > 10000 |
| CNC(=O)[C@@H](NC(=O)[C@@H]1CN(C(=O)c2cnn(Cc3ccccc3)c2)CC12CN(C(=O)NC(C)C)C2)[C@@H](C)OCC1CCCCC1 [I-267] | 1000 to 10000 |
| CNC(=O)[C@@H](NC(=O)[C@H]1CN(Cc2cnn(Cc3ccccc3)c2)CC12CN(C(=O)[C@H]1CC1(C)C)C2)[C@@H](C)OCc1ccccc1 [I-16B] | > 10000 |
| C[C@@H](OCC1CCCCC1)[C@H](NC(=O)[C@@H]1CN(C(=O)c2cnn(Cc3ccccc3)c2)CC12CN(C(=O)[C@H]1CC1(C)C)C2)C(=O)N1CCC[C@@H](N)C1 [I-218] | ≤ 10 |
| CCOC(=O)C(C)(C)CNC(=O)[C@@H](NC(=O)[C@@H]1CN(C(=O)c2cnn(Cc3ccccc3)c2)CC12CN(C(=O)[C@H]1CC1(C)C)C2)[C@@H](C)OCC1CCCCC1 [I-473] | ≤ 10 |
| C[C@@H](OCC1CCOCC1)[C@H](NC(=O)[C@@H]1CN(C(=O)c2cncs2)CC12CN(C(=O)[C@H]1CC1(C)C)C2)C(=O)N1CCC(F)(F)CC1 [I-288] | 10 to 100 |
| Cc1ccc(CNC(=O)[C@@H]2CN(C(=O)c3cnn(Cc4ccccn4)c3)CC23CN(C(=O)[C@H]2CC2(C)C)C3)nn1 [I-417] | > 10000 |
| C[C@@H](OCC1CCC(F)(F)CC1)[C@H](NC(=O)[C@@H]1CN(C(=O)c2cncs2)CC12CN(C(=O)[C@H]1CC1(C)C)C2)C(=O)N1CCC(C)(C)CC1 [I-386] | ≤ 10 |
| CC1(C)C[C@@H]1C(=O)N1CC2(CN(C(=O)c3cnn(Cc4ccccc4)c3)C[C@H]2C(=O)Nc2ccc(-c3ccccc3)cc2)C1 [I-81A] | 100 to 1000 |
| C[C@@H](OCC1CCCCC1)[C@H](NC(=O)[C@@H]1CN(C(=O)c2cncs2)CC12CN(C(=O)[C@H]1CC1(F)F)C2)C(=O)N1CCCCC1 [I-296] | 10 to 100 |
| CNC(=O)[C@@H](NC(=O)[C@@H]1CN(C(=O)c2cn[nH]c2)CC12CN(C(=O)[C@H]1CC1(C)C)C2)[C@@H](C)OCC1CCCCC1 [I-66A, (S)—N-((2S,3R)-3-(cyclohexylmethoxy)-1-(methylamino)-1-oxobutan-2-yl)-2-((S)-2,2-dimethylcyclopropane-1-carbonyl)-6-(1H-pyrazole-4-carbonyl)-2,6-diazaspiro[3.4]octane-8-carboxamide] | 10 to 100 |
| C[C@@H](OCC1CCCCC1)[C@H](NC(=O)[C@@H]1CN(C(=O)c2cnn(Cc3ccccc3)c2)CC12CN(C(=O)[C@H]1CC1(C)C)C2)C(=O)N1CCC(F)(F)CC1 [I-149A] | ≤ 10 |
| CNC(=O)[C@H](CO)NC(=O)C1CN(C(=O)c2cnn(Cc3ccccc3)c2)CC12CN(C(=O)[C@H]1CC1(C)C)C2 (stereo partly shown) [I-260] | > 10000 |
| C[C@@H](OCC1CCC(F)(F)CC1)[C@H](NC(=O)[C@@H]1CN(C(=O)c2cncs2)CC12CN(C(=O)[C@H]1CC1(C)C)C2)C(=O)N1CCC2(CC1)CC2 [I-380] | ≤ 10 |
| CNC(=O)[C@@H](NC(=O)[C@@H]1CN(C(=O)c2scnc2C(C)(C)C)CC12CN(C(=O)[C@H]1CC1(C)C)C2)[C@@H](C)OCC1CCCCC1 [I-231A] | 1000 to 10000 |
| CNC(=O)[C@@H](NC(=O)[C@H]1CN(C(=O)c2cnn(Cc3ccccc3)c2)CC12CN(C(=O)CC(C)(C)C)C2)[C@@H](C)OCc1ccccc1 [I-62B] | > 10000 |
| C[C@@H](OCC1CCC(F)(F)CC1)[C@H](NC(=O)[C@@H]1CN(C(=O)c2cncs2)CC12CN(C(=O)[C@H]1CC1(C)C)C2)C(=O)N1C2CCC1COC2 [I-468] | ≤ 10 |
| CNC(=O)C(NC(=O)[C@@H]1CN(C(=O)c2cncs2)CC12CN(C(=O)[C@H]1CC1(C)C)C2)c1cccc(C2CCC(F)(F)CC2)n1 (stereo partly shown) [I-411] | 10 to 100 |
| C[C@@H](OCC1CCCCC1)[C@H](NC(=O)C1CN(C(=O)c2cncs2)CC12CN(C(=O)[C@H]1CC1(C)C)C2)C(=O)N1CCC[C@@H](CO)C1 (stereo partly shown) [I-197] | ≤ 10 |
| C[C@@H](OC1(C2CCCCC2)CC1)[C@H](NC(=O)[C@@H]1CN(C(=O)c2cncs2)CC12CN(C(=O)[C@H]1CC1(C)C)C2)C(=O)N1CCCCC1 [I-357] | 10 to 100 |
| C[C@@H](OCC1CCCCC1)[C@@H](COCC1CCCCC1)NC(=O)[C@@H]1CN(C(=O)c2cncs2)CC12CN(C(=O)[C@H]1CC1(C)C)C2 [I-282] | ≤ 10 |
| CNC(=O)[C@@H](NC(=O)[C@@H]1CN(C(=O)c2cncs2)CC12CN(CC1CCOC1)C2)[C@@H](C)OCC12CCC(CC1)OC2 (stereo partly shown) [I-345] | > 10000 |
| C[C@@H](OCC1CCCCC1)[C@H](NC(=O)[C@@H]1CN(C(=O)c2cnn(Cc3ccccc3)c2)CC12CN(C(=O)[C@H]1CC1(C)C)C2)C(=O)N1CCC(c2ncc[nH]2)CC1 [I-446] | ≤ 10 |

| SMILES | IC50 [nM] |
| --- | --- |
| C[C@@H](OCC1CCOCC1)[C@H](NC(=O)[C@@H]1CN(C(=O)c2cncs2)CC12CN(C(=O)[C@H]1CC1(C)C)C2)C(=O)N1CCC(n2ccnc2)CC1 [I-440] | 10 to 100 |
| CNC(=O)[C@@H](NC(=O)[C@H]1CN(C(=O)c2cnn(Cc3ccccc3)c2)CC12CN(C(=O)C1(C#N)CC1)C2)[C@@H](C)OCc1ccccc1 [I-73B] | > 10000 |
| CNC(=O)[C@@H](NC(=O)[C@H]1CN(C(=O)c2cnn(Cc3ccccc3)c2)CC12CN(C(=O)CC1CC1)C2)[C@@H](C)OCC1CCCCC1 [I-56B] | 1000 to 10000 |
| CNC(=O)[C@@H](NC(=O)[C@@H]1CN(C(=O)c2cnn(Cc3ccccc3)c2)CC12CN(C(=O)[C@H]1CC1(C)C)C2)[C@@H](C)N(CC1CCCCC1)C(C)=O [I-273, (S)-6-(1-benzyl-1H-pyrazole-4-carbonyl)-N-((2S,3R)-3-(N-(cyclohexylmethyl)acetamido)-1-(methylamino)-1-oxobutan-2-yl)-2-((S)-2,2-dimethylcyclopropane-1-carbonyl)-2,6-diazaspiro[3.4]octane-8-carboxamide] | > 10000 |
| CNC(=O)[C@@H](NC(=O)[C@@H]1CN(C(=O)c2cnn(Cc3ccccc3)c2)CC12CN(C(=O)CC(C)C)C2)[C@@H](C)OCc1ccccc1 [I-69A] | 100 to 1000 |
| CN(C(=O)[C@H]1CCCN(C(=O)[C@@H]2CN(C(=O)c3cnn(Cc4ccccc4)c3)CC23CN(C(=O)[C@H]2CC2(C)C)C3)C1)C1CCCCC1 [I-179] | 1000 to 10000 |
| CC1(C)C[C@@H]1C(=O)N1CC2(CN(C(=O)c3cnn(Cc4ccccc4)c3)C[C@H]2C(=O)NCc2ccc(O)nn2)C1 [I-400] | > 10000 |
| CC1(C)C[C@@H]1C(=O)N1CC2(CN(C(=O)c3cnn(Cc4ccccc4)c3)C[C@H]2C(=O)NCc2nc3ccccc3o2)C1 [I-230] | 1000 to 10000 |
| C[C@@H](OCC12CCC(CC1)OC2)[C@H](NC(=O)[C@@H]1CN(C(=O)c2cncs2)CC12CN(C(=O)[C@H]1CC1(C)C)C2)C(=O)N1CCC2(CC1)CC2 [I-458] | ≤ 10 |
| CNC(=O)[C@@H](NC(=O)[C@@H]1CN(C(=O)c2cncs2)CC12CN(C(=O)[C@H]1CC1(C)C)C2)[C@@H](C)OCC1CC2CCC1O2 (stereo partly shown) [I-462] | 100 to 1000 |
| CC1(C)C[C@@H]1C(=O)N1CC2(CN(C(=O)c3cnn(Cc4ccccc4)c3)C[C@H]2C(=O)N[C@H]2CCCN(CC3CCCCC3)C2)C1 [I-183] | > 10000 |
| CC1(C)C[C@@H]1C(=O)N1CC2(CN(C(=O)c3cnn(Cc4ccccc4)c3)C[C@H]2C(=O)NC[C@H]2CC[C@@H](C)CC2)C1 [I-388] | > 10000 |
| CNC(=O)[C@@H](NC(=O)[C@@H]1CN(C(=O)c2cnn(Cc3ccccc3)c2)CC12CN(C(=O)[C@H]1CC1(C)C)C2)[C@@H](C)SCc1ccccc1 [I-368] | 100 to 1000 |
| CO[C@H]1COCC[C@H]1NC(=O)[C@@H]1CN(C(=O)c2cnn(Cc3ccccc3)c2)CC12CN(C(=O)[C@H]1CC1(C)C)C2 [I-134A] | > 10000 |
| CNC(=O)[C@@H](NC(=O)[C@@H]1CN(C(=O)c2cncs2)CC12CN(C(=O)[C@H]1CC1(C)C)C2)[C@@H](C)OCc1ccccc1 [I-24A, (S)—N-((2S,3R)-3-(benzyloxy)-1-(methylamino)-1-oxobutan-2-yl)-2-((S)-2,2-dimethylcyclopropane-1-carbonyl)-6-(thiazole-5-carbonyl)-2,6-diazaspiro[3.4]octane-8-carboxamide] | 100 to 1000 |
| C[C@@H](OCC1CCCCC1)[C@H](NC(=O)[C@H]1CN(C(=O)c2cn[nH]c2)CC12CN(C(=O)[C@H]1CC1(C)C)C2)C(=O)N1CCC(F)(F)CC1 [I-154B] | 1000 to 10000 |
| CC1(C)C[C@@H]1C(=O)N1CC2(CN(C(=O)c3cnn(Cc4ccccc4)c3)C[C@@H]2C(=O)N2CCCC(Cc3ccccc3)C2)C1 (stereo partly shown) [I-91B] | > 10000 |
| CNC(=O)[C@@H](NC(=O)[C@@]1(C)CN(C(=O)c2cnn(Cc3ccccc3)c2)CC12CN(C(=O)[C@H]1CC1(C)C)C2)[C@@H](C)OCC1CCCCC1 [I-499B] | > 10000 |
| CCOC(=O)[C@H]1CCCN(C(=O)[C@@H](NC(=O)[C@@H]2CN(C(=O)c3cnn(Cc4ccccc4)c3)CC23CN(C(=O)[C@H]2CC2(C)C)C3)[C@@H](C)OCC2CCCCC2)C1 [I-482] | ≤ 10 |
| CNC(=O)C(NC(=O)[C@@H]1CN(C(=O)c2cncs2)CC12CN(C(=O)[C@H]1CC1(C)C)C2)c1cccc(N2CCOCC2)n1 (stereo partly shown) [I-422] | 1000 to 10000 |
| C[C@@H](OCC1CCCCC1)[C@H](NC(=O)[C@@H]1CN(C(=O)c2cnn(Cc3ccccc3)c2)CC12CN(C(=O)[C@H]1CC1(C)C)C2)C(N)=O [I-200] | ≤ 10 |
| C[C@@H](OCC1CCCCC1)[C@H](NC(=O)C1CN(C(=O)c2cnn(Cc3ccccc3)c2)CC12CN(C(=O)[C@H]1CC1(C)C)C2)C(=O)N1CCCCC1 (stereo partly shown) [I-194 mixture] | ≤ 10 |
| C[C@@H](OCC1CCOCC1)[C@@H](COC1CCC(F)(F)CC1)NC(=O)[C@@H]1CN(C(=O)c2cncs2)CC12CN(C(=O)[C@H]1CC1(C)C)C2 [I-312] | 10 to 100 |
| CNC(=O)[C@@H](NC(=O)[C@@H]1CN(C(=O)c2cnn(Cc3ccccc3)c2)CC12CN(C(=O)[C@H]1CC1(C)C)C2)[C@@H](C)OCc1ccccc1O [I-251] | 100 to 1000 |
